Reference: US6268478A, “Intracellular vitamin D binding protein” (Cedars-Sinai Medical Center, priority 1997, dated 2001)

Key:
[1] = target: T1, human heat shock protein-70 (hsp70) (Homo sapiens, UniProt P0DMV8); assay: Competitive ligand binding of [3H]25-hydroxyvitamin D3 to recombinant inducibly-expressed hsp70
T1 construct: purchased StressGen, Victoria, B.C., Canada
Method: Ligand Binding Analyses. The ability of the unfractionated 100,000×g supernatant extracts of B95-8 cells and individual column fractions of chromatographically-purified material to bind [^3 H]25-OHD3 in the presence or absence of increasing concentrations of radioinert compounds (see Table I) was performed by competitive protein binding assay as previously described in Gacad et al. Bone Min. Res. 8:27-35 (1993).
(§1) Briefly, unfractionated or post-FPLC fractions were incubated in ETD-0.5 M NaCl overnight at 4° C. with 4 nM [3H]25-OHD3 in the presence or absence of 1-100 nM unlabeled competitive ligand. Protein-bound [^3 H]25-OHD3 was separated from unbound sterol by incubation with dextran-coated charcoal. Specifically-bound 25-OHD3 was determined by subtracting the mean of duplicate determinations of binding in the presence of 100 nM radioinert competitive ligand from the mean of determinations of binding in the absence of added competitive ligand. Specific binding of 17β-[^3 H]estradiol as well as [^3 H]25-OHD3 to IDBP(s) was also determined in individual fractions eluting from hydroxyapatite chromatography. The binding assay conditions were the same as those stated above except that specific binding was determined in ETD-0.3 M Na2 HPO4 buffer (pH 6.8).
Inducibly-expressed, recombinant human heat shock protein-70 (hsp70) was purchased from StressGen, Victoria, B.C., Canada. […]

IDBP [2] = target: T2, IDBP (Saguinus oedipus, UniProt Q9N1U2); assay: Competitive displacement of [3H]25-OHD3 from IDBP in unfractionated 100,000×g supernatant extracts of B95-8 cells (competitive protein binding assay, dextran-coated charcoal); set-up: post-nuclear 100,000xg supernatant of B95-8 marmoset lymphoblasts and partly purified column fractions; species or system Callithrix jacchus (common marmoset); conditions: for RBI (Relative Binding Index): relative ability of maximally effective concentration to displace [3H]25-OHD3, 25-OHD3 assigned 100, unfractionated 100,000×g supernatant of B95-8 cells; for binding / displacement of [3H]25-OHD3 by vitamin D2 metabolites and synthetic analogues (FIG. 2B): unfractionated B95-8 extracts, 4 nM [3H]25-OHD3; for ability to competitively displace [3H]25-OHD3 binding (FIG. 1A): 100 nM competitor, 2 nM [3H]25-OHD3
T2 sequence (Q9N1U2 whole entry): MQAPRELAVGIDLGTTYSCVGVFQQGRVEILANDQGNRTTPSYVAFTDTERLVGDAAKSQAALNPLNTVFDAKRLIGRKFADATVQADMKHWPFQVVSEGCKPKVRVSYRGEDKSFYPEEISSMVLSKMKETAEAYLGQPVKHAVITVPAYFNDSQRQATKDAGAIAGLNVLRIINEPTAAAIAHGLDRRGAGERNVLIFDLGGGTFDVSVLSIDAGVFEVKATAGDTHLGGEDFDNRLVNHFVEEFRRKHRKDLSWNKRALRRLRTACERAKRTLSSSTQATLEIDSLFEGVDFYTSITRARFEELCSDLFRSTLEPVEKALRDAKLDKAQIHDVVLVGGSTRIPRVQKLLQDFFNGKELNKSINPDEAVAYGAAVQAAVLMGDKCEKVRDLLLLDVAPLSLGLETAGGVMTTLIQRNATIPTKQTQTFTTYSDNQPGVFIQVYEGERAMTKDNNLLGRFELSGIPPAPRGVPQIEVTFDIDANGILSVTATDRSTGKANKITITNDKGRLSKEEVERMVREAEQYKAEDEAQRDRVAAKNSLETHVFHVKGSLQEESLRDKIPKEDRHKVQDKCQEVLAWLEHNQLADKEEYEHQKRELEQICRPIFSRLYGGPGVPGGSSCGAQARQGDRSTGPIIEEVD
Source text: Culture and Extraction of B95-8 Cells. The B-lymphoblastoid cell line B95-8 was obtained from the American Type Culture Collection (ATCC, Manassas, Va.). This cell line was established by EBV transformation of blood leukocytes from the vitamin D-resistant new world primate, Callithrix jacchus (common marmoset). The cell line was maintained in RPMI-1640 medium (Irvine Scientific, Irvine, Calif.) routinely supplemented with 10% fetal calf serum (FCS; Gemini BioProducts, Calabasas, Calif.), 100 units/ml penicillin, 100 μg/ml streptomycin, 2 mM L-glutamine (both from Gibco-BRL, Grand Island, N.Y.) in an atmosphere of 95% air-5% CO2.
Confluent cultures were harvested by agitation to dislodge clumps of lymphoblasts that were weakly adherent to the plastic flask. Harvested cells were pelleted and washed twice in ice cold phosphate-buffered saline (PBS; 20 mM Na2 HPO4 and 150 mM NaCl, pH 7.2). The pelleted cells were then resuspended in ETD buffer (1 mM EDTA, 10 mM Tris-HCl, 5 mM dithiothreitol, pH 7.4) containing 1 mM phenylmethylsulfonylflouride and homogenized by Polytron on ice in five 15-second bursts. Nuclei with associated nuclear steroid receptor proteins, were pelleted at 4,000×g for 30 minutes at 4° C. The post-nuclear supernatant of this spin was then subjected to high-speed centrifugation at 100,000×g for 1 hour at 4° C. The resulting "100,000×g supernatant" was either aliquoted and stored at […] for further study, used in competitive ligand binding analyses, or subjected to further purification as described below in Example II.
Ligand Binding Analyses. The ability of the unfractionated 100,000×g supernatant extracts of B95-8 cells and individual column […] of increasing concentrations of radioinert compounds (see Table I) was performed by competitive protein binding assay as previously described in Gacad et al. Bone Min. Res. 8:27-35 (1993).
[…] […] […] […] The binding assay conditions were the same as those stated above except that specific binding was determined in ETD-0.3 M Na2 HPO4 buffer (pH 6.8).

IDBP [3] = target: T2, IDBP; assay: 25-OHD3 binding activity of cells transiently transfected with plasmid expressing the IDBP coding region; set-up: species or system Callithrix jacchus (common marmoset)
Source text: The coding region of IDBP shown in FIG. 3 was cloned into pcDNA3.1 (Invitrogen). […] Control plasmid was the pcDNA3.1 vector without cloned insert.

IDBP(s) = assay: Specific binding of [3H]25-OHD3 and [3H]17β-estradiol in post-hydroxyapatite peak I and peak II fractions of B95-8 extract; set-up: species or system Callithrix jacchus (common marmoset); conditions: both peak I and peak II from hydroxyapatite chromatography; tracer ± 100 nM radioinert ligand
Method: as §1
On the basis of protein recovery, enrichment of bioactivity, ease of use, and resin available for FPLC and/or HPLC applications, three chromatographic supports, one each from the three different kinds of packing materials evaluated, were selected for serial chromatographic purification of IDBP(s): BPS-DE cellulose for anion exchange chromatography, phenyl sepharose (mid sub) for hydrophobic interaction chromatography, and HTP-hydroxyapatite for separation of proteins by their surface charge. […]

[4] = system: ATP binding domain of IDBP; assay: 25-OHD3 binding activity of cells transfected with construct encoding the IDBP ATP binding domain; set-up: species or system Callithrix jacchus (common marmoset); conditions: COS-7 and OMK gibbon cells transfected with ATP binding domain construct
Source text: This experiment was repeated with expression plasmids which encode different fragments of IDBP. The coding region of the cDNA contains a convenient Eco RI restriction site which divides the region encoding the deduced ATP binding from the deduced peptide binding domain and variable domain.

T1 sequence (P0DMV8 whole entry): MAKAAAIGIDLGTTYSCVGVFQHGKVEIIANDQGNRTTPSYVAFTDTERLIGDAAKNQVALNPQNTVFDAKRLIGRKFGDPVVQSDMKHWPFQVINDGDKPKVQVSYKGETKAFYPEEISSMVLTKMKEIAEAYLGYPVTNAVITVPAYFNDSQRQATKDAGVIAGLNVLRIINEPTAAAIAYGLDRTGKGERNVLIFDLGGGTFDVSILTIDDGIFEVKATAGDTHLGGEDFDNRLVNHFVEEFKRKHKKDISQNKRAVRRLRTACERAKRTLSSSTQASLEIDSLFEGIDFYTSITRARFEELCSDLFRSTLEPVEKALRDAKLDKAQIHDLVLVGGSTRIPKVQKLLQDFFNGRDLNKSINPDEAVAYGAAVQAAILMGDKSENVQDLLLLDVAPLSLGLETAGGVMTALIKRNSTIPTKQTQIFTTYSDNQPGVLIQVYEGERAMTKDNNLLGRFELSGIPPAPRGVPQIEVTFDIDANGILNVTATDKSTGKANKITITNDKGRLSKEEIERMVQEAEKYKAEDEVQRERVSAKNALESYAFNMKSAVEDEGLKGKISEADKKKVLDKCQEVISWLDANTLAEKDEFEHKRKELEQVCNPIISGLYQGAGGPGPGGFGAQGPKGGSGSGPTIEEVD

[^3 H]25-hydroxy vitamin D3 [[^3 H]25-OHD3]
specific [3H]25-OHD3 binding activity of hsp70 ([1]; recombinant human inducibly-expressed hsp70): exhibited specific [^3 H]25-OHD3 binding activity

C=C1/C(=C\C=C2/CCC[C@]3(C)[C@@H]([C@H](C)/C=C/[C@@H](O)C4CC4)CC[C@@H]23)C[C@@H](O)C[C@@H]1O [Calcipotriol (MC903), Calcipotriol]
RBI (Relative Binding Index) (IDBP [2]): 0 | binding / displacement of [3H]25-OHD3 by vitamin D2 metabolites and synthetic analogues (FIG. 2B) (IDBP [2]): none of the C-1-hydroxylated nonhypercalcemic analogues MC903, EB1089 and KH1060 (FIG. 2A) were able to displace [^3 H]25-OHD3 binding

C=C1CC[C@H](O)C/C1=C/C=C1\CCC[C@]2(C)[C@@H]([C@H](C)CCCC(C)(C)O)CC[C@@H]12 [25-OHD3, 25-hydroxy vitamin D3]
25-OHD3 binding activity (IDBP [3]; Cos-7 cells transfected with IDBP coding region in pcDNA3.1): approximately 0.8 fmol/μg protein | 25-OHD3 binding activity (IDBP [3]; OMK gibbon cells transfected with IDBP coding region in pcDNA3.1): approximately 1.0 fmol/μg protein | specific binding activity for 25-OHD3 relative to that of 17β-estradiol (IDBP(s)): approximately 2 fold | 25-OHD3 binding activity [4]: exhibited enhanced 25-OHD3 binding activity | IC (maximal displacement) ([1]; inducibly expressed hsp70, read-out: concentration of radioinert ligand required to achieve maximal displacement of [3H]25-hydroxyvitamin D3): 0.05 to 0.1 µM | ability to competitively displace [3H]25-OHD3 binding (FIG. 1A) (IDBP [2]): roughly equivalent in their ability to competitively inhibit | IC (maximal displacement) (IDBP [2]; IDBP, read-out: concentration of radioinert ligand required to achieve maximal displacement of [3H]25-hydroxyvitamin D3): 0.05 to 0.1 µM

C[C@@H]1C[C@H]2[C@@H]3CCC4=CC(=O)C=C[C@]4(C)[C@@]3(F)[C@@H](O)C[C@]2(C)[C@@]1(O)C(=O)CO [Dexamethasone]
RBI (Relative Binding Index) (IDBP [2]): 0

C=C1CC[C@H](O)C/C1=C/C=C1\CCC[C@]2(C)[C@@H]([C@H](C)/C=C/[C@H](C)C(C)(C)O)CC[C@@H]12 [25-OHD2, 25-hydroxy vitamin D2]
RBI (Relative Binding Index) (IDBP [2]): 100 | binding / displacement of [3H]25-OHD3 by vitamin D2 metabolites and synthetic analogues (FIG. 2B) (IDBP [2]): bound in unfractionated extracts equivalently to 25-OHD3 and 1,25-(OH)^2 D3

CCCCC[C@H](O)/C=C/[C@@H]1[C@@H](C/C=C\CCCC(=O)O)[C@@H](O)C[C@H]1O [PGF2alpha]
RBI (Relative Binding Index) (IDBP [2]): 0

CC(C)[C@@H](C)/C=C/[C@@H](C)[C@H]1CC[C@H]2/C(=C/C=C3\C[C@@H](O)CC[C@@H]3C)CCC[C@]12C [Dihydrotachysterol]
ability to competitively displace [3H]25-OHD3 binding (FIG. 1A) (IDBP [2]): incapable of displacing [^3 H]25-OHD3 | RBI (Relative Binding Index) (IDBP [2]): 0

C[C@]12CC[C@H](O)CC1=CC[C@@H]1[C@@H]2CC[C@]2(C)C(=O)CC[C@@H]12 [DHEA]
RBI (Relative Binding Index) (IDBP [2]): 0
